Measured values from publication PMC8355704, “Designing Modular Cell-free Systems for Tunable Biotransformation of L-phenylalanine to Aromatic Compounds” (Frontiers in Bioengineering and Biotechnology, 2021).

Assays:
Format in all cases: biochemical
[1] = biological target: T1, phenylalanine ammonia lyase 2 (PAL2) (Arabidopsis thaliana, UniProt P45724); test: GC-MS detection of product cinnamic acid in cell-free expression mixture; details: unpurified E. coli CFPS lysate; control without plasmid
T1 construct: codon-optimised gene in pET28a (NdeI/SalI), made by E. coli cell-free protein synthesis, not purified

[2] = biological target: T2, phenylacrylic acid decarboxylase (PAD, containing two enzymes Fdc1 and Pad1) (Aspergillus niger, UniProt A2QHE5); test: GC-MS detection of product styrene in cell-free expression mixture; details: unpurified E. coli CFPS lysate; control without plasmid; Fdc1 coexpressed with Pad1
T2 construct: codon-optimised Fdc1 and Pad1 genes in pET28a, coexpressed by E. coli cell-free protein synthesis, not purified; with Flavin prenyltransferase PAD1, mitochondrial

[3] = biological target: T3, styrene oxide isomerase (StyC, SOI) (Pseudomonas sp. VLB120, UniProt O50216); test: GC-MS detection of product phenylacetaldehyde in cell-free expression mixture; details: unpurified E. coli CFPS lysate; control without plasmid
T3 construct: gene stdC; codon-optimised gene in pET28a, made by E. coli cell-free protein synthesis, not purified; membrane protein
T3 sequence (O50216 1-169): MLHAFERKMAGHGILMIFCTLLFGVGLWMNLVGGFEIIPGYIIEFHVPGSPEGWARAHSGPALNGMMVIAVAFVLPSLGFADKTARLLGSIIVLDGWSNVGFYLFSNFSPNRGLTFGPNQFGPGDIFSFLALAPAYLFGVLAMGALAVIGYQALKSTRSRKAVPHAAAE

[4] = biological target: T4, styrene monooxygenase (SMO, consisting of two subunit enzymes StyA and StyB) (Pseudomonas sp., UniProt O50214); test: GC-MS detection of product styrene oxide in cell-free expression mixture; details: unpurified E. coli CFPS lysate; control without plasmid; StyA coexpressed with StyB; NADH from lysate
T4 construct: pET28a-StyA and pET28a-StyB coexpressed by E. coli cell-free protein synthesis, two separate chains, not purified; with Styrene monooxygenase StyB (NADH-flavin oxidoreductase component)
T4 sequence (O50214 1-415): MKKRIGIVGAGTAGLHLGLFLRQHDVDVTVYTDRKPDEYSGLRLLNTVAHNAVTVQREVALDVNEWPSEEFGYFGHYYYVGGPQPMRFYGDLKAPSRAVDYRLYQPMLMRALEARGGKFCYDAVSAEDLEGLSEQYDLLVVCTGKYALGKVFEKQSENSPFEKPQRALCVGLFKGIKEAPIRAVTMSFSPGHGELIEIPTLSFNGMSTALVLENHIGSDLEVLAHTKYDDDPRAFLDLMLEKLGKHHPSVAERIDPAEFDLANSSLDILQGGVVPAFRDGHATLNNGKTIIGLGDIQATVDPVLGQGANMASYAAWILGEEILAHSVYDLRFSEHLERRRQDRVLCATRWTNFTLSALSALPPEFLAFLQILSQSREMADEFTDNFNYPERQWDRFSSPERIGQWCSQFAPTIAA

T1 sequence (P45724 whole entry): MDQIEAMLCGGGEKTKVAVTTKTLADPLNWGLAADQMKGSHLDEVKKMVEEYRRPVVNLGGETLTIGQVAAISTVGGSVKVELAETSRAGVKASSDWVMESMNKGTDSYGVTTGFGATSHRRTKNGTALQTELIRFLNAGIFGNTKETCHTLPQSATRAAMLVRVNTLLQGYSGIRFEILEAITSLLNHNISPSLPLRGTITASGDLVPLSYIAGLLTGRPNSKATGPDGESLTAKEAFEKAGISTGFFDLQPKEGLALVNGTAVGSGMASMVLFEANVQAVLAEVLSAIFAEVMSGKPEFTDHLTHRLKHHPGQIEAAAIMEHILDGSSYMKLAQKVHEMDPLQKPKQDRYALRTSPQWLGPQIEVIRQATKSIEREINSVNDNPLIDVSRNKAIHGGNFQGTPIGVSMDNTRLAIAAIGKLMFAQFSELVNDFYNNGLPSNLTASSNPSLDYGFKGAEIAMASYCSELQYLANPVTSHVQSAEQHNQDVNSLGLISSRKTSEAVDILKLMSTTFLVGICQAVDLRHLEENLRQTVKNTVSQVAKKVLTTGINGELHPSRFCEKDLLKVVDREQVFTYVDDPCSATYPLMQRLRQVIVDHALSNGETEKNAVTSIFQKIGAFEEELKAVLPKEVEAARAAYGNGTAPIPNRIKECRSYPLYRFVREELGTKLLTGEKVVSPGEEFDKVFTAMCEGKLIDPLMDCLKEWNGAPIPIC

N[C@@H](Cc1ccccc1)C(=O)O [compound 1, L-phenylalanine]
GC-MS detection of product cinnamic acid in cell-free expression mixture [1]: each target compound was detected by GC-MS

O=C(O)/C=C/c1ccccc1 [compound 2, cinnamic acid]
GC-MS detection of product styrene in cell-free expression mixture [2]: the conversion of cinnamic acid to styrene requires two enzymes Fdc1 and Pad1

c1ccc(C2CO2)cc1 (stereo not shown) [compound 4, styrene oxide]
GC-MS detection of product phenylacetaldehyde in cell-free expression mixture [3]: all cell-free expressed enzymes were active to convert their substrates to the corresponding products

C=Cc1ccccc1 [compound 3, styrene]
GC-MS detection of product styrene oxide in cell-free expression mixture [4]: two subunit enzymes StyA and StyB to oxidize styrene to styrene oxide
